The record followed here is US7741493B2, “Heterocyclic compounds as P2X7 ion channel blockers” (Aventis Pharmaceuticals Inc., priority 2003, dated 2010).

“And” between values parts separate entries of the source, which are not always exact repeats. Equal entries are not always repeated. Structures can show the parent of a compound that is named as a salt. Where two headings read alike, the source gives them in different places.

The target in the experiment is T1, P2X7 (Homo sapiens, UniProt Q99572).
T1 sequence (Q99572 1-595): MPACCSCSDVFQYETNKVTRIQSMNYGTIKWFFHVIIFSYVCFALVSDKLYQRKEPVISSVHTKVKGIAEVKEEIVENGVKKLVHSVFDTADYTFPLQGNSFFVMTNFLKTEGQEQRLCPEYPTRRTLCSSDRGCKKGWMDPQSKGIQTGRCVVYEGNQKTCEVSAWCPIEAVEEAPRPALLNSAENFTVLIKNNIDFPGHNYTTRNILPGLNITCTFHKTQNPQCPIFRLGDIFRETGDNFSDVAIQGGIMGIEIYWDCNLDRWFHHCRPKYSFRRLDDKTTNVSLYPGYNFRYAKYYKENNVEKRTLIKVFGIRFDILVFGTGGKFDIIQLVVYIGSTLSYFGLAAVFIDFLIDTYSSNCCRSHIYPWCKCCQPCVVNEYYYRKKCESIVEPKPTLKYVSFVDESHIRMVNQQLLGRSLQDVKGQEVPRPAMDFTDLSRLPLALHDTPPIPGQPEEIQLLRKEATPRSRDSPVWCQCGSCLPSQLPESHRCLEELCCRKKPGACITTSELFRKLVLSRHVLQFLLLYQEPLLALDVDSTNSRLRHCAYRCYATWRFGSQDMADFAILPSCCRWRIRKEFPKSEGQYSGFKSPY
Nature of the experiment: YO-PRO-1 dye uptake assay in U373 cells stably expressing P2X7. Type of experiment: cell-based. The settings on record: dye uptake through P2X7, U373 cells, 300 μM BzATP, 5 μM YO-PRO-1, test compounds 30 nM to 3 μM. Also noted: The complete open reading frame of human P2X7 was amplified from Incyte clone 148057; expressed in transfected cells. An outline of the steps: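 U373 cells stably expressing human P2X7 preincubated 20 min at 37° C. with compound (30 nM to 3 μM) in Mg/Ca-free HBSS. YO-PRO-1 (5 μM final) and BzATP (300 μM final) then added for 1.5 h at 37° C.; dye-uptake fluorescence compared with compound-free control.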

For orientation: IC50 means the concentration that gives 50% inhibition. As to `Fc1ccc(CNC2=N[C@@H](c3ccc(Cl)cc3)[C@@H](c3ccc(Cl)cc3)N2)cc1F` [[cis-4,5-bis-(4-Chlorophenyl)-4,5-dihydro-1H-imidazol-2-yl]-(3,4-difluorobenzyl)-amine hydrochloride], the IC50 (read-out: IC50) worked out at 400 nM.

Turning to `Clc1ccc([C@H]2NC(NCc3ccccc3)=N[C@H]2c2ccc(Cl)cc2)cc1` [[cis-4,5-bis-(4-Chlorophenyl)-4,5-dihydro-1H-imidazol-2-yl]-benzylamine hydrochloride], the IC50 (read-out: IC50) is 404 nM.

With `Fc1ccc([C@H]2NC(NCc3ccccc3)=N[C@H]2c2ccc(F)cc2)cc1` [[cis-4,5-bis-(4-Fluorophenyl)-4,5-dihydro-1H-imidazol-2-yl]-benzylamine hydrochloride], under “read-out: IC50”, the IC50 is 371 nM. As for `Cc1ccc([C@H]2NC(NCc3ccc(F)c(F)c3)=N[C@H]2c2ccc(C)cc2)cc1` [[cis-4,5-bis-(4-Methylphenyl)-4,5-dihydro-1H-imidazol-2-yl]-(3,4-difluorobenzyl)-amine hydrochloride], the IC50 (read-out: IC50) worked out at 150 nM. Consider `Cc1ccc([C@H]2NC(NCc3cccc(F)c3)=N[C@H]2c2ccc(C)cc2)cc1` [[cis-4,5-bis-(4-Methylphenyl)-4,5-dihydro-1H-imidazol-2-yl]-(3-fluorobenzyl)amine hydrochloride], for which the IC50 (read-out: IC50) is 134 nM. As to `Cc1ccc([C@H]2NC(NCc3ccc(F)cc3)=N[C@H]2c2ccc(C)cc2)cc1` [[cis-4,5-bis-(4-Methylphenyl)-4,5-dihydro-1H-imidazol-2-yl]-(4-fluorobenzyl)amine hydrochloride], the IC50 (read-out: IC50) was found to be 287 nM.

`Cc1ccc([C@H]2NC(NCc3ccccc3)=N[C@H]2c2ccc(C)cc2)cc1` [[cis-4,5-bis-(4-Methylphenyl)-4,5-dihydro-1H-imidazol-2-yl]-benzylamine hydrochloride]: the IC50 (read-out: IC50) stood at 275 nM. The same measure, in the same setting: as for `Fc1cccc([C@H]2NC(CCc3ccccc3)=N[C@H]2c2cccc(F)c2)c1` [cis-4,5-bis(3-fluorophenyl)-2-(2-phenylethyl)-4,5-dihydro-1H-imidazole], the figure is 146 nM; as for `Fc1ccc([C@H]2NC(CCc3ccccc3)=N[C@H]2c2ccc(F)cc2)cc1` [cis-4,5-bis(4-fluorophenyl)-2-(2-phenylethyl)-4,5-dihydro-1H-imidazole], 277 nM; as for `Fc1ccc(CNC2=N[C@@H](c3ccccc3)[C@@H](c3ccccc3)N2)c(F)c1` [cis-4,5-diphenyl-2-(2,4-difluorobenzyl)amino-4,5-dihydro-1H-imidazole], 289 nM. Same read-out and setting: the figure for `Cc1ccccc1CCC1=N[C@H](c2ccccc2)[C@H](c2ccccc2)N1` [cis-4,5-diphenyl-2-(2-(2-methylphenyl)ethyl)-4,5-dihydro-1H-imidazole] is 42 nM; for `Brc1ccccc1CC1=N[C@@H](c2ccccc2)[C@@H](c2ccccc2)N1` [cis-4,5-diphenyl-2-(2-bromobenzyl)-4,5-dihydro-1H-imidazole] it is 321 nM.

On to `Brc1ccccc1CNC1=N[C@@H](c2ccccc2)[C@@H](c2ccccc2)N1` [cis-4,5-diphenyl-2-(2-bromobenzyl)amino-4,5-dihydro-1H-imidazole], for which, where the note is “read-out: IC50”, the IC50 is 503 nM. Still for that read-out and setting: the figure for `Brc1ccccc1CSC1=N[C@@H](c2ccccc2)[C@@H](c2ccccc2)N1` [cis-4,5-diphenyl-2-(2-bromobenzyl)thio-4,5-dihydro-1H-imidazole] is 521 nM. Same read-out and setting: as for `Fc1ccc(CNC2=N[C@@H](c3ccccc3)[C@@H](c3ccccc3)N2)c(Cl)c1` [cis-4,5-diphenyl-2-(2-chloro-4-fluorobenzyl)amino-4,5-dihydro-1H-imidazole], the figure is 247 nM. Regarding `Clc1ccccc1CC1=N[C@H](c2ccccc2)[C@H](c2ccccc2)N1` [cis-4,5-diphenyl-2-(2-chlorobenzyl)-4,5-dihydro-1H-imidazole], the IC50 (read-out: IC50) was 163 nM and 160 nM. On the same count and under the same terms, as for `Clc1ccccc1CNC1=N[C@@H](c2ccccc2)[C@@H](c2ccccc2)N1` [cis-4,5-diphenyl-2-(2-chlorobenzyl)amino-4,5-dihydro-1H-imidazole], the figure is 587 nM. The same measure, in the same setting: as for `Clc1ccccc1CSC1=N[C@@H](c2ccccc2)[C@@H](c2ccccc2)N1` [cis-4,5-diphenyl-2-(2-chlorobenzyl)thio-4,5-dihydro-1H-imidazole], the figure is 630 nM; as for `Fc1ccccc1CC1=N[C@H](c2ccccc2)[C@H](c2ccccc2)N1` [cis-4,5-diphenyl-2-(2-fluorobenzyl)-4,5-dihydro-1H-imidazole], 577 nM; as for `Fc1ccccc1CNC1=N[C@@H](c2ccccc2)[C@@H](c2ccccc2)N1` [cis-4,5-diphenyl-2-(2-fluorobenzyl)amino-4,5-dihydro-1H-imidazole], 409 nM. Consider `Fc1ccccc1CSC1=N[C@@H](c2ccccc2)[C@@H](c2ccccc2)N1` [cis-4,5-diphenyl-2-(2-fluorobenzyl)thio-4,5-dihydro-1H-imidazole], for which the IC50 (read-out: IC50) was 819 nM.

As to `Ic1ccccc1CSC1=N[C@@H](c2ccccc2)[C@@H](c2ccccc2)N1` [cis-4,5-diphenyl-2-(2-iodobenzyl)thio-4,5-dihydro-1H-imidazole], the IC50 (read-out: IC50) came to 647 nM.

`COc1ccccc1CNC1=N[C@@H](c2ccccc2)[C@@H](c2ccccc2)N1` [cis-4,5-diphenyl-2-(2-methoxybenzyl)amino-4,5-dihydro-1H-imidazole]: the IC50 (read-out: IC50) amounted to 409 nM.

The molecule `Cc1ccccc1CC1=N[C@H](c2ccccc2)[C@H](c2ccccc2)N1` [cis-4,5-diphenyl-2-(2-methylbenzyl)-4,5-dihydro-1H-imidazole] yielded an IC50 (IC50 (nM)) of 321 nM. Regarding `Cc1ccccc1CNC1=N[C@@H](c2ccccc2)[C@@H](c2ccccc2)N1` [cis-4,5-diphenyl-2-(2-methylbenzyl)amino-4,5-dihydro-1H-imidazole], the IC50 (read-out: IC50) is 243 nM. Same read-out and setting: the figure for `Cc1ccccc1CSC1=N[C@@H](c2ccccc2)[C@@H](c2ccccc2)N1` [cis-4,5-diphenyl-2-(2-methylbenzyl)thio-4,5-dihydro-1H-imidazole] is 449 nM.

Molecule `c1ccc(CCC2=N[C@H](c3ccccc3)[C@H](c3ccccc3)N2)cc1` [cis-4,5-diphenyl-2-(2-phenylethyl)-4,5-dihydro-1H-imidazole] registered an IC50 (IC50 (nM)) of 77 nM.

As to `Clc1ccc(CNC2=N[C@@H](c3ccccc3)[C@@H](c3ccccc3)N2)cc1Cl` [cis-4,5-diphenyl-2-(3,4-dichlorobenzyl)amino-4,5-dihydro-1H-imidazole], the IC50 (read-out: IC50) amounted to 307 nM. With `Brc1cccc(CNC2=N[C@@H](c3ccccc3)[C@@H](c3ccccc3)N2)c1` [cis-4,5-diphenyl-2-(3-bromobenzyl)amino-4,5-dihydro-1H-imidazole], the IC50 (read-out: IC50) came out at 225 nM.

On to `Clc1cccc(CC2=N[C@@H](c3ccccc3)[C@@H](c3ccccc3)N2)c1` [cis-4,5-diphenyl-2-(3-chlorobenzyl)-4,5-dihydro-1H-imidazole], for which the IC50 (read-out: IC50) came out at 34 nM. Consider `Clc1cccc(CNC2=N[C@@H](c3ccccc3)[C@@H](c3ccccc3)N2)c1` [cis-4,5-diphenyl-2-(3-chlorobenzyl)amino-4,5-dihydro-1H-imidazole], for which, for the setting “read-out: IC50”, the IC50 is 164 nM. Same read-out and setting: as for `Clc1cccc(CSC2=N[C@@H](c3ccccc3)[C@@H](c3ccccc3)N2)c1` [cis-4,5-diphenyl-2-(3-chlorobenzyl)thio-4,5-dihydro-1H-imidazole], the figure is 634 nM.

For the molecule `Fc1cccc(CC2=N[C@H](c3ccccc3)[C@H](c3ccccc3)N2)c1` [cis-4,5-diphenyl-2-(3-fluorobenzyl)-4,5-dihydro-1H-imidazole], the 50% inhibitory concentration (IC50) amounted to 80 nM (IC50 (nM)) and 84 nM (read-out: IC50).

For `Fc1cccc(CSC2=N[C@@H](c3ccccc3)[C@@H](c3ccccc3)N2)c1` [cis-4,5-diphenyl-2-(3-fluorobenzyl)thio-4,5-dihydro-1H-imidazole], the IC50 (read-out: IC50) is 240 nM. `COc1cccc(CNC2=N[C@@H](c3ccccc3)[C@@H](c3ccccc3)N2)c1` [cis-4,5-diphenyl-2-(3-methoxybenzyl)amino-4,5-dihydro-1H-imidazole]: for the setting “read-out: IC50”, the IC50 is 386 nM. Take `Cc1cccc(CC2=N[C@@H](c3ccccc3)[C@@H](c3ccccc3)N2)c1` [cis-4,5-diphenyl-2-(3-methylbenzyl)-4,5-dihydro-1H-imidazole]: the IC50 (read-out: IC50) was 376 nM.

On to `Cc1cccc(CNC2=N[C@@H](c3ccccc3)[C@@H](c3ccccc3)N2)c1` [cis-4,5-diphenyl-2-(3-methylbenzyl)amino-4,5-dihydro-1H-imidazole], for which the IC50 (read-out: IC50) was found to be 187 nM.

For `Cc1cccc(CSC2=N[C@@H](c3ccccc3)[C@@H](c3ccccc3)N2)c1` [cis-4,5-diphenyl-2-(3-methylbenzyl)thio-4,5-dihydro-1H-imidazole], the IC50 (read-out: IC50) was 722 nM. For the molecule `Clc1ccc(CC2=N[C@@H](c3ccccc3)[C@@H](c3ccccc3)N2)cc1` [cis-4,5-diphenyl-2-(4-chlorobenzyl)-4,5-dihydro-1H-imidazole], the IC50 (read-out: IC50) is 269 nM and 270 nM.
